No end group written: not given here.

The test system of this experiment is rabbit ileum. Description: Peptide antagonists FZI/0 and FZI/1 on rabbit ileum in Ussing chambers, alone or before ZOT or zonulin. Format: cell-based. As for the experimental part: Next, Ussing chamber assays were carried out using ileum from 2-3 kg adult male New Zealand white rabbits, which were sacrificed by cervical dislocation. A 20 cm segment of ileum was removed, rinsed free of the intestinal content, opened along the mesenteric border, and stripped of muscular and serosal layers. Eight sheets of mucosa so prepared were then mounted in lucite Ussing chambers (1.12 cm^2 opening), connected to a voltage clamp apparatus (EVC 4000 WPI, Saratosa, Fla.), and bathed with freshly prepared Ringer's solution comprising 53 mM NaCl, 5.0 mM KCl, 30.5 mM mannitol, 1.69 mM Na2HPO4, 0.3 mM NaH2PO4, 1.25 mM CaCl2, 1.1 mM MgCl2, and 25 mM NaHCO3. The bathing solution was maintained at 37° C. with water-jacketed reservoirs connected to a constant-temperature circulating pump and gassed with 95% O2/5% CO2.
100 μl of zonulin purified from rabbit intestine was added to the mucosal side. The potential difference (PD) was measured every 10 min, and the short-circuit current (Isc) and tissue resistance (Rt) were calculated as described by Fasano et al, supra. Because of tissue variability, data were calculated as ΔRt (Rt at time x)−(Rt at time 0).
Next, rabbit ileum mounted in Ussing chambers as described above, were exposed to 100 μg of FZI/0 (SEQ ID NO:15), 100 μg ofFZI/1 (SEQ ID NO:34), 1.0 μg of 6xHis-ZOT (obtained as described in Example 1), 1.0 μg of zonulini (obtained as described in Example 3), or 1.0 μg of zonulinh (obtained as described in Example 3) alone; or pre-exposed for 20 min to 100 μg of FZI/0 or FZI/1, at which time 1.0 μg of 6xHis-ZOT, 1.0 μg of zonulini, or 1.0 μg of zonulinh, was added. ΔRt was then calculated as described above.

With “GGVLVQPG [FZI/0, synthetic octapeptide corresponding to amino acid residues 8-15 of human fetal zonulini]”, for the setting “100 μg peptide alone, not significant, FIG. 8 closed bar”, the “change in Rt as compared to the negative control, peptide alone” value was found to be 0.5%. Besides, the “decrease of the effect of ZOT on Rt” value (pre-treatment 20 min with 100 μg peptide, then 1.0 μg 6xHis-ZOT, FIG. 8) was 75%. Moreover, the “decrease of the effect of zonulinh on Rt” value (pre-treatment 20 min with 100 μg peptide, then 1.0 μg zonulinh, FIG. 8) worked out at 100%. The “decrease of the effect of zonulini on Rt” value (pre-treatment 20 min with 100 μg peptide, then 1.0 μg zonulini, FIG. 8) stood at 97%.
As for “VGVLGRPG [FZI/1, second synthetic peptide with positions 8, 12 and 13 changed to the residues of zonulinb (Val, Gly, Arg)]”, where the note is “pre-exposure 20 min to 100 μg peptide, FIG. 8 shaded bar”, the “inhibitory effect on the action of ZOT, zonulini and zonulinh on Rt” value is “completely ablated”.

The values above are taken from patent US6670448B2, “Peptide antagonists of zonulin and methods for use of the same” (University of Maryland, Baltimore, priority 1998, dated 2003).
